Values quoted from earlier work as cited in patent US20240189272A1, “FORMULATIONS AND COMPOSITIONS OF DOCETAXEL” (Zhuhai Beihai Biotech Co., Ltd., priority 2017, published 2024).
“Also recorded” adds a separate entry of the source.

Tests used:
[1] = attributed in part to polysorbate 80

in vitro binding to plasma proteins (plasma proteins; in three cancer patients): approximately 97% | protein bound (plasma proteins; in vitro studies, mainly to α1-acid glycoprotein, albumin, and lipoproteins): about 94%
SMILES: CC(=O)O[C@@]12CO[C@@H]1C[C@H](O)[C@@]1(C)C(=O)[C@H](O)C3=C(C)[C@@H](OC(=O)[C@H](O)[C@@H](NC(=O)OC(C)(C)C)c4ccccc4)C[C@@](O)([C@@H](OC(=O)c4ccccc4)[C@H]21)C3(C)C [docetaxel]
side-effects associated with administration [1]: unpredictable (acute) hypersensitivity reactions and cumulative fluid retention | water solubility: practically insoluble in water; also recorded: very poor water solubility | potency in inhibiting microtubule depolymerization relative to paclitaxel (microtubules): about twice as potent as paclitaxel
